Test results taken from ChEMBL document CHEMBL1255475, “Mutant prevention concentrations of four carbapenems against gram-negative rods” (2010).
Converted amounts (≈) assume the structure as drawn.

Experiments:
[1] = test system: Klebsiella pneumoniae; experiment: Antibacterial activity against beta-lactamase-positive ESBL-negative Klebsiella pneumoniae E509 incubated up to 7 days by agar dilution method; type: functional; conditions: E509, 168 h
[2] = test system: Klebsiella pneumoniae; experiment: Ratio of mutant prevention concentration to minimum Inhibitory concentration for beta-lactamase-positive ESBL-positive Klebsiella pneumoniae E475; type: functional
[3] = test system: Klebsiella pneumoniae; experiment: Ratio of mutant prevention concentration to minimum Inhibitory concentration for beta-lactamase-negative Klebsiella pneumoniae E359; type: functional
[4] = test system: Klebsiella pneumoniae; experiment: Ratio of mutant prevention concentration to minimum Inhibitory concentration for beta-lactamase-negative Klebsiella pneumoniae E420; type: functional
[5] = test system: Klebsiella pneumoniae; experiment: Ratio of mutant prevention concentration to minimum Inhibitory concentration for beta-lactamase-positive ESBL-negative Klebsiella pneumoniae E479; type: functional
[6] = test system: Klebsiella pneumoniae; experiment: Ratio of mutant prevention concentration to minimum Inhibitory concentration for beta-lactamase-negative Klebsiella pneumoniae E358; type: functional
[7] = test system: Escherichia coli; experiment: Ratio of mutant prevention concentration to minimum Inhibitory concentration for beta-lactamase-positive ESBL-negative Escherichia coli E415; type: functional
[8] = test system: Escherichia coli; experiment: Ratio of mutant prevention concentration to minimum Inhibitory concentration for beta-lactamase-negative Escherichia coli E350; type: functional
[9] = test system: Acinetobacter baumannii; experiment: Antibacterial activity against Acinetobacter baumannii A890 incubated up to 7 days by agar dilution method; type: functional; conditions: A890, 168 h
[10] = test system: Acinetobacter baumannii; experiment: Ratio of mutant prevention concentration to minimum Inhibitory concentration for Acinetobacter baumannii A929; type: functional
[11] = test system: Acinetobacter baumannii; experiment: Antibacterial activity against Acinetobacter baumannii A912 incubated for 24 h by agar dilution method; conditions: A912, 24 h
[12] = test system: Acinetobacter baumannii; experiment: Ratio of mutant prevention concentration to minimum Inhibitory concentration for Acinetobacter baumannii A885; type: functional
[13] = test system: Pseudomonas aeruginosa; experiment: Ratio of mutant prevention concentration to minimum Inhibitory concentration for Pseudomonas aeruginosa P370; type: functional
[14] = test system: Acinetobacter baumannii; experiment: Antibacterial activity against Acinetobacter baumannii A848 incubated up to 7 days by agar dilution method; type: functional; conditions: A848, 168 h
[15] = test system: Pseudomonas aeruginosa; experiment: Antibacterial activity against Pseudomonas aeruginosa P370 incubated up to 7 days by agar dilution method; type: functional; conditions: P370, 168 h
[16] = test system: Acinetobacter baumannii; experiment: Antibacterial activity against Acinetobacter baumannii A849 incubated for 24 h by agar dilution method; conditions: A849, 24 h
[17] = test system: Pseudomonas aeruginosa; experiment: Ratio of mutant prevention concentration to minimum Inhibitory concentration for Pseudomonas aeruginosa P327; type: functional
[18] = test system: Acinetobacter baumannii; experiment: Ratio of mutant prevention concentration to minimum Inhibitory concentration for Acinetobacter baumannii A850; type: functional
[19] = test system: Acinetobacter baumannii; experiment: Antibacterial activity against Acinetobacter baumannii A850 incubated up to 7 days by agar dilution method; type: functional; conditions: A850, 168 h
[20] = test system: Pseudomonas aeruginosa; experiment: Ratio of mutant prevention concentration to minimum Inhibitory concentration for Pseudomonas aeruginosa P376; type: functional
[21] = test system: Pseudomonas aeruginosa; experiment: Ratio of mutant prevention concentration to minimum Inhibitory concentration for Pseudomonas aeruginosa P319; type: functional
[22] = test system: Pseudomonas aeruginosa; experiment: Ratio of mutant prevention concentration to minimum Inhibitory concentration for Pseudomonas aeruginosa P320; type: functional
[23] = test system: Acinetobacter baumannii; experiment: Ratio of mutant prevention concentration to minimum Inhibitory concentration for Acinetobacter baumannii A884; type: functional
[24] = test system: Acinetobacter baumannii; experiment: Antibacterial activity against Acinetobacter baumannii A931 incubated for 24 hrs by agar dilution method; conditions: A931, 24 h
[25] = test system: Acinetobacter baumannii; experiment: Antibacterial activity against Acinetobacter baumannii A864 assessed as mutant prevention concentration after overnight incubation; type: functional
[26] = test system: Acinetobacter baumannii; experiment: Ratio of mutant prevention concentration to minimum Inhibitory concentration for Acinetobacter baumannii A908; type: functional
[27] = test system: Pseudomonas aeruginosa; experiment: Ratio of mutant prevention concentration to minimum Inhibitory concentration for Pseudomonas aeruginosa P341; type: functional
[28] = test system: Acinetobacter baumannii; experiment: Ratio of mutant prevention concentration to minimum Inhibitory concentration for Acinetobacter baumannii A911; type: functional
[29] = test system: Pseudomonas aeruginosa; experiment: Ratio of mutant prevention concentration to minimum Inhibitory concentration for Pseudomonas aeruginosa P322; type: functional
[30] = test system: Acinetobacter baumannii; experiment: Antibacterial activity against Acinetobacter baumannii A897 incubated up to 7 days by agar dilution method; type: functional; conditions: A897, 168 h
[31] = test system: Acinetobacter baumannii; experiment: Antibacterial activity against Acinetobacter baumannii A908 after 24 hrs by agar dilution method; type: functional; conditions: A908, 24 h
[32] = test system: Klebsiella pneumoniae; experiment: Antibacterial activity against beta-lactamase-positive ESBL-positive Klebsiella pneumoniae E478 after 24 hrs by agar dilution method; type: functional; conditions: E478, 24 h
[33] = test system: Klebsiella pneumoniae; experiment: Antibacterial activity against beta-lactamase-negative Klebsiella pneumoniae E357 after 24 hrs by agar dilution method; type: functional; conditions: E357, 24 h
[34] = test system: Pseudomonas aeruginosa; experiment: Antibacterial activity against Pseudomonas aeruginosa P319 after 24 hrs by agar dilution method; type: functional; conditions: P319, 24 h
[35] = test system: Acinetobacter baumannii; experiment: Antibacterial activity against Acinetobacter baumannii A865 after 24 hrs by agar dilution method; type: functional; conditions: A865, 24 h
[36] = test system: Escherichia coli; experiment: Antibacterial activity against beta-lactamase-negative Escherichia coli E347 after 24 hrs by agar dilution method; conditions: E347, 24 h
[37] = test system: Pseudomonas aeruginosa; experiment: Antibacterial activity against Pseudomonas aeruginosa P341 after 24 hrs by agar dilution method; conditions: P341, 24 h
[38] = test system: Pseudomonas aeruginosa; experiment: Antibacterial activity against Pseudomonas aeruginosa P320 after 24 hrs by agar dilution method; conditions: P320, 24 h
[39] = test system: Acinetobacter baumannii; experiment: Antibacterial activity against Acinetobacter baumannii A903 after 24 hrs by agar dilution method; type: functional; conditions: A903, 24 h
[40] = test system: Klebsiella pneumoniae; experiment: Antibacterial activity against beta-lactamase-negative Klebsiella pneumoniae E360 after 24 hrs by agar dilution method; type: functional; conditions: E360, 24 h
[41] = test system: Pseudomonas aeruginosa; experiment: Antibacterial activity against Pseudomonas aeruginosa P328 after 24 hrs by agar dilution method; type: functional; conditions: P328, 24 h
[42] = test system: Escherichia coli; experiment: Antibacterial activity against beta-lactamase-positive ESBL-negative Escherichia coli E415 after 24 hrs by agar dilution method; conditions: E415, 24 h
[43] = test system: Escherichia coli; experiment: Antibacterial activity against beta-lactamase-positive ESBL-positive Escherichia coli E450 after 24 hrs by agar dilution method; conditions: E450, 24 h
[44] = test system: Klebsiella pneumoniae; experiment: Antibacterial activity against beta-lactamase-positive ESBL-negative Klebsiella pneumoniae E474 after 24 hrs by agar dilution method; type: functional; conditions: E474, 24 h
[45] = test system: Escherichia coli; experiment: Antibacterial activity against beta-lactamase-positive ESBL-negative Escherichia coli E483 after 24 hrs by agar dilution method; conditions: E483, 24 h
[46] = test system: Escherichia coli; experiment: Antibacterial activity against beta-lactamase-negative Escherichia coli E409 after 24 hrs by agar dilution method; conditions: E409, 24 h
[47] = test system: Klebsiella pneumoniae; experiment: Antibacterial activity against beta-lactamase-negative Klebsiella pneumoniae E420 after 24 hrs by agar dilution method; type: functional; conditions: E420, 24 h
[48] = test system: Pseudomonas aeruginosa; experiment: Antibacterial activity against Pseudomonas aeruginosa P335 after 24 hrs by agar dilution method; conditions: P335, 24 h
[49] = test system: Klebsiella pneumoniae; experiment: Antibacterial activity against beta-lactamase-negative Klebsiella pneumoniae E417 after 24 hrs by agar dilution method; type: functional; conditions: E417, 24 h
[50] = test system: Pseudomonas aeruginosa; experiment: Antibacterial activity against Pseudomonas aeruginosa P332 after 24 hrs by agar dilution method; conditions: P332, 24 h
[51] = test system: Pseudomonas aeruginosa; experiment: Antibacterial activity against Pseudomonas aeruginosa P353 after 24 hrs by agar dilution method; type: functional; conditions: P353, 24 h
[52] = test system: Escherichia coli; experiment: Antibacterial activity against beta-lactamase-positive ESBL-negative Escherichia coli E437 after 24 hrs by agar dilution method; conditions: E437, 24 h

C[C@@H](O)[C@H]1C(=O)N2C(C(=O)O)=C(S[C@@H]3CN[C@H](C(=O)Nc4cccc(C(=O)O)c4)C3)[C@H](C)[C@H]12
MIC [1]: 16 µg/mL (≈ 33.6 µM)
Ratio [2]: 2
Ratio [3]: 2
Ratio [4]: 4
Ratio [5]: 8
Ratio [6]: 4
Ratio [7]: 4
Ratio [8]: 2

C[C@@H](O)[C@H]1C(=O)N2C(C(=O)O)=C(S[C@@H]3CN[C@H](CNS(N)(=O)=O)C3)[C@H](C)[C@H]12 [DORIPENEM]
MIC [1]: 4 µg/mL (≈ 9.51 µM)
Ratio [2]: 8
Ratio [3]: 2
MIC [9]: 0.25 µg/mL (≈ 0.595 µM)
Ratio [10]: 2
MIC [11]: 4 µg/mL (≈ 9.51 µM)
Ratio [12]: 2
Ratio [13]: 16
Ratio [4]: 1
MIC [14]: 8 µg/mL (≈ 19 µM)
MIC [15]: 0.25 µg/mL (≈ 0.595 µM)
Ratio [5]: >16
MIC [16]: 4 µg/mL (≈ 9.51 µM)
Ratio [17]: 16
Ratio [6]: 2
Ratio [18]: 2
Ratio [7]: 2
MIC [19]: 4 µg/mL (≈ 9.51 µM)
Ratio [20]: >16
Ratio [8]: 2
Ratio [21]: 4
Ratio [22]: >8
Ratio [23]: 2
MIC [24]: 1 µg/mL (≈ 2.38 µM)
MPC [25]: 64 µg/mL
Ratio [26]: 2
Ratio [27]: 16
Ratio [28]: 2
Ratio [29]: 8
MIC [30]: 0.5 µg/mL (≈ 1.19 µM)

C[C@@H](O)[C@H]1C(=O)N2C(C(=O)O)=C(SCCNC=N)C[C@H]12 [IMIPENEM ANHYDROUS]
MIC [31]: 0.25 µg/mL (≈ 0.835 µM)
MIC [32]: 4 µg/mL (≈ 13.4 µM)
MIC [33]: 0.25 µg/mL (≈ 0.835 µM)
MIC [34]: 8 µg/mL (≈ 26.7 µM)
MIC [35]: 8 µg/mL (≈ 26.7 µM)
MIC [36]: 0.25 µg/mL (≈ 0.835 µM)
MIC [37]: 4 µg/mL (≈ 13.4 µM)
MIC [38]: 2 µg/mL (≈ 6.68 µM)
MIC [39]: 0.5 µg/mL (≈ 1.67 µM)
MIC [40]: 0.25 µg/mL (≈ 0.835 µM)
MIC [41]: 8 µg/mL (≈ 26.7 µM)
MIC [42]: 0.125 µg/mL (≈ 0.418 µM)
MIC [43]: 0.125 µg/mL (≈ 0.418 µM)
MIC [44]: 8 µg/mL (≈ 26.7 µM)
MIC [45]: 1 µg/mL (≈ 3.34 µM)
MIC [46]: 0.25 µg/mL (≈ 0.835 µM)
MIC [47]: 0.25 µg/mL (≈ 0.835 µM)
MIC [48]: 1 µg/mL (≈ 3.34 µM)
MIC [49]: 0.5 µg/mL (≈ 1.67 µM)
MPC [25]: 64 µg/mL
MIC [50]: 1 µg/mL (≈ 3.34 µM)
MIC [51]: 8 µg/mL (≈ 26.7 µM)
MIC [52]: 0.25 µg/mL (≈ 0.835 µM)

C[C@@H](O)[C@H]1C(=O)N2C(C(=O)O)=C(S[C@@H]3CN[C@H](C(=O)N(C)C)C3)[C@H](C)[C@H]12 [MEROPENEM]
MIC [9]: 0.5 µg/mL (≈ 1.3 µM)
MIC [11]: 2 µg/mL (≈ 5.22 µM)
MIC [14]: 8 µg/mL (≈ 20.9 µM)
MIC [15]: 0.25 µg/mL (≈ 0.652 µM)
MIC [16]: 8 µg/mL (≈ 20.9 µM)
MIC [19]: 4 µg/mL (≈ 10.4 µM)
MIC [24]: 1 µg/mL (≈ 2.61 µM)
MIC [30]: 0.5 µg/mL (≈ 1.3 µM)
